From patent US11285158B2, “Uses of pyrimidopyrimidinones as SIK inhibitors” (The General Hospital Corporation, priority 2017, dated 2022)
“Also recorded” adds a separate entry of the source.

Key:
[1] = tested on: normal human melanocytes, UACC62 melanoma cells, and UACC257 melanoma cells; assay: MITF and TRPM1 mRNA expression by qPCR; type: cell-based; conditions: for Mitf expression: UACC62 and UACC257 melanoma cells (FIG. 7); for TRPM1 mRNA levels (MITF gene target): delayed relative to MITF induction, 4 uM, over 24 hours; for MITF mRNA expression / Induction of the pigmentation pathway compared with HG 9-91-01: normal human melanocytes; for MITF mRNA expression: UACC62 and UACC257 cells, 3 hours of treatment, relative to RPL11; for Induction of the pigmentation pathway compared with HG 9-91-01: Mitf and TRPM1 mRNA (FIG. 4)
Method: Cell Culture. UACC257 and UACC62 cells were grown in RPM1+1% penicillin and streptomycin+5% fetal bovine serum. Normal human melanocytes were grown in TIVA, and starved 24 hours in HAM's F-12+1% penicillin and streptomycin before all molecular experiments.
(§1) qPCR. mRNA was extracted from cells using the RNeasy Mini Kit (Qiagen®). KAPA SYBR® FAST Universal One-Step qRT-PCR Kit (KAPA BIOSYSTEMS®) was used to prepare mRNA samples for qPCR and samples were analyzed using the 7500 Fast Real Time PCR System (Applied Biosystems®). The relative expression of each gene was calculated by 7500 Fast System Software program, which utilizes Ct normalized to mRNA levels of RPL11 to calculate relative expression. Results are reported relative to control cells.

[2] = tested on: UACC257 melanoma cells; assay: Cell pelleting experiment (gross pigmentation of cell pellets); type: cell-based, human; conditions: 4 uM, 3 days of treatment
Method: Cell pelleting experiments. 1×10^5 UACC257 cells were plated per well in a 6-well plate. […] After 3 days, cells were trypsinized with 0.25% trypsin, resuspended in RPMI media, and pelleted. Pellets were washed 1× with PBS and allowed to dry before imaging.

[3] = tested on: Mc1r^e/e;K14—Scf mice; assay: Mouse pigmentation experiment, redhair model; type: in vivo
Method: (§2) Mice. C57BL/6J Mc1r^e/e mice were crossed with K14—Scf transgenic mice. C57BL/6J Tyr^c2j/c2j were crossed with K14—Scf transgenic mice. (Kunisada et al. 1998; D'Orazio et al. 2006).
(§3) Mouse pigmentation experiments. Animals were treated with vehicle control or 37.5 mM HG 9-9-01 until uniform gross darkening was visible as stated in figure legends. Daily differences in darkening of the skin were measured by reflective colorimetry. Skin was harvested, fixed, and processed for paraffin embedding. Sections were cut from paraffin blocks, and sections were stained utilizing hematoxylin and eosin (morphology) and Fontana-Masson (melanin). Melanin dissolution was conducted utilizing NaOH lysis method (Wakamatsu and Ito 2002).
(§4) Colorimeter Measurements: Differences in darkening of the skin were measured by reflective colorimetry (CIE L* white-black color axis) utilizing a CR-400 Colorimeter (Minolta®) calibrated by a calibration plate (C: Y 93.1, x 0.3133, y 0.3194) before each set of measurements.
(§5) To test this, a previously described mouse “redhair” model was utilized which carries the inactivating Mc1r^e/e mutant allele and a transgene, K14—SCF, in which Stem Cell Factor expression is driven by the Keratin-14 promoter allowing for epidermal homing of melanocytes (Kunisada et al. 1998; D'Orazio et al. 2006). Albino mice harboring a mutation in the tyrosinase gene were combined with the K14—Scf transgene (tyr^c/c;K14—Scf mice) and served as controls to evaluate whether the pigmentation afforded by topical SIK inhibitor was dependent upon the canonical tyrosinase-melanin pathway. […] Skin pigmentation remained in its pretreatment state over the next 30 days (FIG. 3A; 3B). […] These findings combined with the small molecule and lipophilic nature of the SIK inhibitors led us to investigate the use of SIK inhibitors for topical eumelanization of human skin.

[4] = tested on: Tyr^c/c;K14—Scf mice; assay: Mouse pigmentation experiment, albino control mice; type: in vivo
Method: as §2, §3, §4, §5

[5] = tested on: B16 cells; assay: In vitro MITF induction in B16 cells; type: cell-based, mouse; conditions: Mus musculus, Table 5
Method: as §1
Tables 2 to 5 below show the effects of exemplary […] compounds on skin darkening, including an in vitro test of MITF induction following the same protocol as described above in paragraph 333, wherein exemplary SIK inhibitor compounds were tested for their in vitro induction of MITF.
(§6) Table 5 below additionally provides characteristics of exemplary SIK inhibitor compounds, MITF induction in B16 cells, EC50, log P, and experimental conditions for skin darkening experiments in mice and humans.

[6] = tested on: mouse skin; assay: Skin darkening experiments in mice (Table 5); type: in vivo; conditions: HG-9-91-01: 2 days, 25 mM, HG-11-136-01: 12 days, HG-11-143-01: 12 days, 25 mM (4 days) −130 mM (8 days)
Method: Mouse pigmentation experiments. […] Daily differences in darkening of the skin were measured by reflective colorimetry. Skin was harvested, fixed, and processed for paraffin embedding. Sections were cut from paraffin blocks, and sections were stained utilizing hematoxylin and eosin (morphology) and Fontana-Masson (melanin). Melanin dissolution was conducted utilizing NaOH lysis method (Wakamatsu and Ito 2002).
as §6

[7] = tested on: human breast skin explants; assay: Human skin explants: darkening/pigmentation after topical SIK inhibitor; type: cell-based; conditions: for Results (skin darkening): Human Skin Explants; for Gross pigmentation of human skin explants / Melanin content, Fontana Masson staining: 37.5 mM; for Gross pigmentation of human skin explants: 8 days (1×/day); for Melanin content, Fontana Masson staining: 8 days, compared to control
Method: Image and Colorimeter analysis were conducted 24 hours after the last treatment.
Human pigmentation experiments. Full thickness human breast skin explants were cultured in petri dishes with a solid phase and liquid phase phenol red free DMEM medium with […], 5% fungizone (Gibco®), and 10% FBS. Passive application refers to simply applying the treatment to skin without further rubbing or manipulation. Mechanical application refers to application of agents to skin with further rubbing of treatment with 10 clockwise turns of a gloved cotton swab applicator. Skin was harvested, fixed, and processed for paraffin embedding. Sections were cut from paraffin blocks, and sections were stained utilizing hematoxylin and eosin (morphology) and Fontana-Masson (melanin).

[8] = tested on: panel of 468 human kinases; assay: KinomeScan kinome profiling; type: binding
Method: Kinome Profiling. Kinome profiling was performed using KinomeScan ScanMAX at compound concentration of 1 μM. Protocols are available from DiscoverX®.
(§7) Since there are limitations to topical delivery of drugs into human skin epidermis, novel SIK inhibitors designed to enhance epidermal permeation by reducing the size and increasing the lipophilicity (c Log P) to develop second generation SIK inhibitors YKL 06-061 and YKL 06-062 were derived (FIG. 6) (Bos and Meinardi 2000; Hadgraft and Pugh 1998). […] To assess the kinome selectivity information of new analogs, YKL-06-061 was screened across a panel of 468 human kinases at a concentration of […] using the KinomeScan methodology (DiscoverX). […] As the KinomeScan assays measure binding, enzymatic assays for these targets were also performed either in-house or using the SelectScreen Kinase Profiling Service at Thermo Fisher Scientific (Madison, Wis.).

[9] = biological target: SIKs; assay: Kinase activity in vitro assay (biochemical IC50 against SIKs); parameters: species or system human; conditions: compared with HG 9-91-01 (FIG. 6)
Method: Kinase activity in vitro assay. The biochemical activities against SIK2 were measured by Caliper-based mobility shift assay (PerkinElmer®). […] Reactions were quenched by adding 20 mM EDTA (pH 8) after 1 hour, and percentage of substrate conversion was measured by LabChip EZ Reader II (PerkinElmer®). IC50's for SIK2 inhibition were calculated using SmartFit nonlinear regression in Genedata® Screener software suite (Genedata®).
(§8) All other in vitro kinase assay were conducted using the SelectScreen Kinase Profiling Service at Thermo Fisher Scientific® (Madison, Wis.). The protocols are available from Thermo Fisher Scientific® website.

[10] = tested on: FRK and SIKs; assay: Enzymatic assays of KinomeScan top hits (in-house or SelectScreen); type: biochemical, human
Method: as §8, §7

[11] = Table 2, passive topical application

Row | Structure (SMILES) | Mitf expression [1] | TRPM1 mRNA levels (MITF gene target) [1] | MITF mRNA expression [1] | Darkening (Mouse) [6] | Results (skin darkening) [7, 11] | Results (skin darkening) ([7]; Table 4) | Gross pigmentation of human skin explants ([7]; passive topical application) | Melanin content, Fontana Masson staining ([7]; passive topical application) | Induction of the pigmentation pathway compared with HG 9-91-01 [1] | IC50 values for inhibition of SIKs [9] | other results
1 | COc1ccc(N(C(=O)Nc2c(C)cccc2C)c2cc(Nc3ccc(N4CCN(C)CC4)cc3)ncn2)c(OC)c1 [HG 9-91-01] | induces Mitf expression | increased | Dose-dependent increases | – | – | – | – | – | – | – | Gross pigmentation of cell pellets [2]: Gross pigmentation was observed; Fontana-Masson staining, difference between treatment groups ([3]; 40 days after treatment, Mc1r^e/e;K14—Scf and Tyr^c/c;K14—Scf mice): no differences; Skin morphology, hematoxylin and eosin stain ([3]; 40 days after treatment, all mice): normal morphology; Nuclear capping of melanosomes within epidermal keratinocytes ([3]; Fontana-Masson stained skin sections): Nuclear capping of melanin-laden melanosomes was observed; Time to reversal of darkening after treatment was stopped ([3]; after 6 days of topical treatment): ≤ 10 days; Skin morphology, hematoxylin and eosin staining ([3]; after treatment): normal morphology; Extractable eumelanin, NaOH lysis of skin samples ([3]; compared to all other treatment groups): visible increase in extractable eumelanin; Course of darkening ([3]; topical application, 6 days of treatment): progressive and reversible; also recorded: progressive over 6 days of treatment; Reflective colorimetry (CIE L* white-black color axis) ([3]; topical, daily, 37.5 mM): significant darkening; Gross skin darkening ([3]; topical, daily, 37.5 mM, 30 uL, 6 days / 7 days (FIG. 2)): robust darkening; Melanin production, Fontana-Masson staining ([3]; treated skin areas): strong induction of melanin production; Epidermis morphology, hematoxylin and eosin staining ([4]; after treatment): normal morphology; Pigment induction, Fontana-Masson staining ([4]; albino mice): no pigment induction; Visible change in skin pigmentation ([4]; albino mice, topical, daily, 37.5 mM): No visible change in skin pigmentation; Change of skin colour during and after treatment ([4]; during treatment or 14 days after treatment was stopped): No change
2 | COc1ccc(N(C(=O)Nc2c(C)cccc2C)c2cc(Nc3ccc(N4CCN(C)CC4)cc3)ncn2)c(OC)c1 [HG-9-91-01] | – | – | – | Darkens | – | – | – | – | – | – | EC50 ([5]; readout not given, presumably mitf induction in B16 cells): 0.016 µM
3 | COc1ccc(N2C(=O)N(c3c(C)cccc3C)Cc3cnc(Nc4ccc(N5CCN(C)CC5)cc4)nc32)c(OC)c1 [HG-11-136-01] | – | – | – | Darkens | – | – | – | – | – | – | maximal fold induction ([5]; B16 cells, read-out: Highest fold mitf induction in B16 cells): 6.1
4 | COc1cc(N2CCN(C)CC2)ccc1Nc1ncc2c(n1)N(C1CCC1)C(=O)N(c1c(C)cccc1C)C2 [YKL-06-061, 1-cyclobutyl-3-(2,6-dimethylphenyl)-7-(2-methoxy-4-(4-methylpiperazin-1-yl)phenylamino)-3,4-dihydropyrimido[4,5-d]pyrimidin-2(1H)-one] | induces Mitf expression | increased | dose dependent increase | – | Darkens | Darkens | induced significant pigmentation | increased melanin content | as efficacious in inducing the pigmentation pathway as HG 9-91-01 | comparable | S(1) score ([8]; concentration of 1 pM): 0.02; Number of kinases displaying tight binding (Ambit scores of less than or equal to 1) ([8]; concentration of 1 µM): 16; Kinase selectivity in enzymatic assays [10]: only inhibited one kinase (FRK) stronger than SIKs
5 | Cc1cccc(C)c1N1Cc2cnc(Nc3ccc(N4CCN(C)CC4)cc3)nc2N(C2CCCCC2)C1=O [YKL-06-062, 1-cyclohexyl-3-(2,6-dimethylphenyl)-7-(4-(4-methylpiperazin-1-yl)phenylamino)-3,4-dihydropyrimido[4,5-d]pyrimidin-2(1H)-one] | induces Mitf expression | increased | dose dependent increase | – | Darkens | Darkens | induced significant pigmentation | increased melanin content | as efficacious in inducing the pigmentation pathway as HG 9-91-01 | comparable | –
